Converted amounts (≈) assume the structure as drawn.
Columns and labels:
Enterococcus sp. = assay: in vitro antibacterial evaluation, MIC by broth dilution; format: cell-based; conditions: broth dilution, 18 hours at 35° C.
Procedure, shortened: (§1)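 Read-out: the lowest concentration at which the test strain fails to grow. Serial dilutions (64-0.06 μg/mL) in Muller-Hinton II […], 5×10^5 CFU/mL inoculum, NCCLS M7-A2 procedure.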

Streptococcus sp. = assay: as above; format: cell-based; conditions: broth dilution, 18 hours at 35° C.
Procedure, shortened: as §1

Staphylococcus sp. = assay: as above; format: cell-based; conditions: broth dilution, 18 hours at 35° C.
Procedure, shortened: as §1

[1] = clinical pathology (serum clinical chemistry) in mice; format: in vivo; conditions: CD-1 mice, 20 mg/kg intravenously daily for 9 days, sera day 10
Procedure: 20-day-old CD-1 mice were divided into a vehicle control group (5 mice) and a treatment group (5 mice). Samples of glycopeptide antibiotics were administered at 20 mg/kg intravenously daily for 9 days.

[2] = anatomic pathology (histopathology of heart and kidney) in mice; format: in vivo; conditions: CD-1 mice, 20 mg/kg intravenously daily for 9 days, necropsy day 10, microscopic histopathology
Procedure: Samples of tissues from necropsied mice were formalin-fixed, paraffin-embedded, sectioned, stained with hematoxylin and eosin, and examined microscopically. Histopathologic findings were recorded. These findings were subjectively graded on a scale corresponding to slight, mild, moderate, marked and severe as compared to untreated controls.

[3] = tested on: Staphylococcus aureus-SMITH (GC 4543); assay: acute lethal infection in mice; format: in vivo; conditions: acute lethal infection, female CD-1 mice, intraperitoneal challenge, intravenous 30 min. after infection, 7 day survival
Procedure, shortened: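 Female CD-1 mice (20±2 g) got an intraperitoneal bacterial challenge lethal to untreated controls within 24–48 hr. Compound was dosed intravenously 30 min after infection, five mice per dose. ED50 was calculated from 7-day survival pooled across 3 tests.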

Escherichia coli = assay: in vitro antibacterial evaluation, MIC by broth dilution; format: cell-based; conditions: 18 hours at 35° C.

## COc1ccc2cc(COC3C(CO)OC(OC4C(CO)OC(Oc5ccc(CC6NC(=O)C(C(C)c7ccccc7)NC(=O)CNC(=O)C(CO)NC(=O)C(CC7CNC(=N)N7C7OC(CO)C(O)C(O)C7O)NC(=O)C(CC7CNC(=N)N7)NC6=O)cc5)C(O)C4O)C(O)C3O)ccc2c1 (stereo not drawn) [Example 245a, Cyclo[3-(2-iminoimidazolidin-4-yl)alanyl-3-(3-hexopyranosyl-2-iminoimidazolidin-4-yl)-alanylserylglycyl-β-methylphenylalanyl-O-[4-O-[4-O-[(6-methoxy-2-naphthyl)methyl]-hexopyranosyl]hexopyranosyl]tyrosyl]]
Enterococcus sp.
  MIC Enterococcus avium (GC 4558): 4 mg/L (≈ 2.79 µM)
  MIC Enterococcus faecalis (ATCC 29212): 8 mg/L (≈ 5.58 µM)
  MIC Enterococcus faecalis (GC 2242): 4 mg/L (≈ 2.79 µM)
  MIC Enterococcus faecalis (GC 2691): 8 mg/L (≈ 5.58 µM)
  MIC Enterococcus faecalis (GC 3059): 4 mg/L (≈ 2.79 µM)
  MIC Enterococcus faecalis (GC 4552): 8 mg/L (≈ 5.58 µM)
  MIC Enterococcus faecalis (GC 4553): 4 mg/L (≈ 2.79 µM)
  MIC Enterococcus faecalis (GC 4554): 8 mg/L (≈ 5.58 µM)
  MIC Enterococcus faecalis (GC 6189): 8 mg/L (≈ 5.58 µM)
  MIC Enterococcus faecium (GC 2243): 4 mg/L (≈ 2.79 µM)
  MIC Enterococcus faecium (GC 4556): 4 mg/L (≈ 2.79 µM)
  MIC Enterococcus faecium (GC 4557): 2 mg/L (≈ 1.4 µM)
Enterococcus sp.; strain ATCC 29212
  MIC Enterococcus faecalis (ATCC 29212): 8 mg/L (≈ 5.58 µM)
Enterococcus sp.; strain GC 2243
  MIC Enterococcus faecium (GC 2243): 4 mg/L (≈ 2.79 µM)
Enterococcus sp.; strain GC 4552
  MIC Enterococcus faecalis (GC 4552): 8 mg/L (≈ 5.58 µM)
Enterococcus sp.; strain GC 4553
  MIC Enterococcus faecalis (GC 4553): 4 mg/L (≈ 2.79 µM)
Enterococcus sp.; strain GC 4554
  MIC Enterococcus faecalis (GC 4554): 8 mg/L (≈ 5.58 µM)
Enterococcus sp.; strain GC 4556
  MIC Enterococcus faecium (GC 4556): 4 mg/L (≈ 2.79 µM)
Enterococcus sp.; strain GC 4557
  MIC Enterococcus faecium (GC 4557): 2 mg/L (≈ 1.4 µM)
Enterococcus sp.; strain GC 4558
  MIC Enterococcus avium (GC 4558): 4 mg/L (≈ 2.79 µM)
Enterococcus sp.; strain GC 6189
  MIC Enterococcus faecalis (GC 6189): 8 mg/L (≈ 5.58 µM)
Enterococcus sp.; inoculum 5×10^5 CFU/mL, strain GC 2242
  MIC Enterococcus faecalis (GC 2242): 4 mg/L (≈ 2.79 µM)
Enterococcus sp.; inoculum 5×10^5 CFU/mL, strain GC 2691
  MIC Enterococcus faecalis (GC 2691): 8 mg/L (≈ 5.58 µM)
Enterococcus sp.; inoculum 5×10^5 CFU/mL, strain GC 3059
  MIC Enterococcus faecalis (GC 3059): 4 mg/L (≈ 2.79 µM)
Streptococcus sp.
  MIC Streptococcus agalactiae (GC 4564): 1 mg/L (≈ 0.698 µM)
  MIC Streptococcus pneumoniae (ATCC 6301): 0.5 mg/L (≈ 0.349 µM)
  MIC Streptococcus pneumoniae (GC 1894): <0.12 mg/L
  MIC Streptococcus pneumoniae (GC 4565): 1 mg/L (≈ 0.698 µM)
  MIC Streptococcus pyogenes (GC 4563): 1 mg/L (≈ 0.698 µM)
Streptococcus sp.; inoculum 5×10^5 CFU/mL, strain ATCC 6301
  MIC Streptococcus pneumoniae (ATCC 6301): 0.5 mg/L (≈ 0.349 µM)
Streptococcus sp.; inoculum 5×10^5 CFU/mL, strain GC 1894
  MIC Streptococcus pneumoniae (GC 1894): <0.12 mg/L
Streptococcus sp.; inoculum 5×10^5 CFU/mL, strain GC 4563
  MIC Streptococcus pyogenes (GC 4563): 1 mg/L (≈ 0.698 µM)
Streptococcus sp.; inoculum 5×10^5 CFU/mL, strain GC 4564
  MIC Streptococcus agalactiae (GC 4564): 1 mg/L (≈ 0.698 µM)
Streptococcus sp.; inoculum 5×10^5 CFU/mL, strain GC 4565
  MIC Streptococcus pneumoniae (GC 4565): 1 mg/L (≈ 0.698 µM)
Staphylococcus sp.
  MIC Coagulase Negative Staphylococcus (GC 4547): 2 mg/L (≈ 1.4 µM)
  MIC Coagulase Negative Staphylococcus (GC 4548): 1 mg/L (≈ 0.698 µM)
  MIC Coagulase Negative Staphylococcus (GC 4549): 0.5 mg/L (≈ 0.349 µM)
  MIC Coagulase Negative Staphylococcus (GC 4551): 2 mg/L (≈ 1.4 µM)
  MIC Coagulase Negative Staphylococcus (GC 6257): 1 mg/L (≈ 0.698 µM)
  MIC Staphylococcus aureus (ATCC 29213): 2 mg/L (≈ 1.4 µM)
  MIC Staphylococcus aureus (GC 1131): 4 mg/L (≈ 2.79 µM)
  MIC Staphylococcus aureus (GC 3051): 2 mg/L (≈ 1.4 µM)
  MIC Staphylococcus aureus (GC 3053): 2 mg/L (≈ 1.4 µM)
  MIC Staphylococcus aureus (GC 4541): 2 mg/L (≈ 1.4 µM)
  MIC Staphylococcus aureus (GC 4542): 2 mg/L (≈ 1.4 µM)
  MIC Staphylococcus aureus (GC 4544): 2 mg/L (≈ 1.4 µM)
  MIC Staphylococcus aureus (GC 4545): 2 mg/L (≈ 1.4 µM)
  MIC Staphylococcus aureus-SMITH (GC 4543): 2 mg/L (≈ 1.4 µM)
  MIC Staphylococcus haemolyticus (GC 4546): 1 mg/L (≈ 0.698 µM)
Staphylococcus sp.; strain ATCC 29213
  MIC Staphylococcus aureus (ATCC 29213): 2 mg/L (≈ 1.4 µM)
Staphylococcus sp.; strain GC 1131
  MIC Staphylococcus aureus (GC 1131): 4 mg/L (≈ 2.79 µM)
Staphylococcus sp.; strain GC 3051
  MIC Staphylococcus aureus (GC 3051): 2 mg/L (≈ 1.4 µM)
Staphylococcus sp.; strain GC 3053
  MIC Staphylococcus aureus (GC 3053): 2 mg/L (≈ 1.4 µM)
Staphylococcus sp.; strain GC 4541
  MIC Staphylococcus aureus (GC 4541): 2 mg/L (≈ 1.4 µM)
Staphylococcus sp.; strain GC 4542
  MIC Staphylococcus aureus (GC 4542): 2 mg/L (≈ 1.4 µM)
Staphylococcus sp.; strain GC 4543
  MIC Staphylococcus aureus-SMITH (GC 4543): 2 mg/L (≈ 1.4 µM)
Staphylococcus sp.; strain GC 4544
  MIC Staphylococcus aureus (GC 4544): 2 mg/L (≈ 1.4 µM)
Staphylococcus sp.; strain GC 4545
  MIC Staphylococcus aureus (GC 4545): 2 mg/L (≈ 1.4 µM)
Staphylococcus sp.; strain GC 4546
  MIC Staphylococcus haemolyticus (GC 4546): 1 mg/L (≈ 0.698 µM)
Staphylococcus sp.; strain GC 4547
  MIC Coagulase Negative Staphylococcus (GC 4547): 2 mg/L (≈ 1.4 µM)
Staphylococcus sp.; strain GC 4548
  MIC Coagulase Negative Staphylococcus (GC 4548): 1 mg/L (≈ 0.698 µM)
Staphylococcus sp.; strain GC 4549
  MIC Coagulase Negative Staphylococcus (GC 4549): 0.5 mg/L (≈ 0.349 µM)
Staphylococcus sp.; strain GC 4551
  MIC Coagulase Negative Staphylococcus (GC 4551): 2 mg/L (≈ 1.4 µM)
Staphylococcus sp.; strain GC 6257
  MIC Coagulase Negative Staphylococcus (GC 6257): 1 mg/L (≈ 0.698 µM)
[1]
  Clinical Chemistry (Day 10) % of Control, BUN: +212%
  Clinical Chemistry (Day 10) % of Control, Creatinine: +133%
[2]
  Anatomical Pathology (Day 10), Heart: +
  Anatomical Pathology (Day 10), Kidney: +++
[3]
  median effective dose (ED50), Staphylococcus aureus-SMITH (GC 4543): 1 mg/kg
Escherichia coli
  MIC Escherichia coli (ATCC 25922): 32 mg/L (≈ 22.3 µM)
  MIC Escherichia coli (GC 4559): 32 mg/L (≈ 22.3 µM)
  MIC Escherichia coli (GC 4560): 2 mg/L (≈ 1.4 µM)

From patent US6914045B2, “Glycopeptide antibiotics” (Wyeth Holdings Corporation, priority 2001, dated 2005)
